Data reported in patent publication US20160296538A1, “[…] RESPONSE BIOMARKER FOR TH-302 ANTI-CANCER THERAPY” (THRESHOLD PHARMACEUTICALS, INC., priority 2013, published 2016).
Entries after “also recorded” stand apart in the source; their conditions may differ.

Experiments:
[1] = tested on: carbonic anhydrase IX (CA-IX); assay: ELISA quantification of circulating plasma CA-IX in H460 xenograft animals; format: in vivo, nu/nu mice; settings: for circulating plasma CA-IX level change: 72 hours, TH-302 150 mg/kg i.p., doxorubicin 4 mg/kg iv
Procedure: (§1) Three biomarker platforms were employed in this study: positron emission tomography (PET) imaging employing the tracer [18F]-HX4; immunohistochemistry of isolated tumor tissue employing antibodies directed against the exogenous hypoxia biomarker pimonidazole and the endogenous hypoxia biomarker carbonic anhydrase IX (CA-IX); and ELISA-based quantification of circulating plasma CA-IX.
(§2) [18F]-HX4 uptake was assessed by PET/CT imaging, and the tumor to muscle ratio (T/M) was determined. […] Blood was collected from the pre- and post-treated animals via retro-orbital venipuncture. […] For tissue biomarker analysis, tumors were harvested 72 hours after TH-302 treatment, and tumor hypoxia was assessed by semi-quantitative morphometric analysis of the PIMO immunostaining at that time.

[2] = tested on: 786-O human renal cell carcinoma (RCC) cell line; assay: 786-O RCC xenograft tumor growth, repeated dosing; format: in vivo; settings: 786-O model; 50 mg/kg QDx5 for 2 wk, i.p.; P vs vehicle >0.05
Excerpt: (§3) H460 is a high hypoxic fraction tumor model, while the 786-O RCC model is well-vascularized with very low hypoxia. […] When compiling the data from both H460 and 786-O tumors, there was significant correlation between [18F]-HX4 uptake and pimonidazole-positive hypoxic fraction (HF %, R2=0.55, p=0.006).
(§4) The utility of [18F]-HX4 to serve as a predictive biomarker for TH-302 anti-cancer efficacy was shown by the significant correlation observed between the TH-302 anti-cancer efficacy in a model and its hypoxic fraction as measured by [18F]-HX4. […] TGD500 was determined as the increased time (days) for the treated tumor's size on average to reach 500 mm^3 as compared with the vehicle group. TGI was defined as (1−ΔT/ΔC)×100, where ΔT/ΔC is the ratio of the change in mean tumor volume of the treated group (ΔT) and of the control group (ΔC).

[3] = tested on: H460 human non-small cell lung cancer (NSCLC) cell line; assay: H460 NSCLC xenograft tumor growth, repeated dosing; format: in vivo; settings: H460 model; 50 mg/kg QDx5 for 2 wk, i.p.; P vs vehicle <0.001
Excerpt: as §3, §4

[4] = tested on: H460 xenograft tumors; assay: Tissue biomarkers in H460 tumors (Ki67, γH2AX, H&E); format: in vivo, nu/nu mice; settings: 72 hours after 150 mg/kg i.p.
Procedure: (§5) Proliferating cells (as measured by Ki-67 immunostaining) were decreased as well; DNA damage (as measured by γH2AX immunostaining) and necrosis (as measured by hematoxylin and eosin, H&E, staining) were increased. There was regional co-localization of pimonidazole and CA-IX, but not co-localization of pimonidazole and two other putative endogenous hypoxia markers: Glut-1 or HIF-1α.
as §2, with “venipuncture. Plasma CA-IX changed from baseline 165±13 to 104±9.3 pg/ml 72 hours after TH-302 dosing, a 37% reduction (p<0.05; n=10 per group).” for “venipuncture.”, “time. The hypoxic fraction (HF) was 13±1.7% in the vehicle group (n=5) and 5.8±0.5% in the TH-302 treatment group (n=6, p<0.05).” for “time.”

[5] = tested on: H460 non-small cell lung cancer xenograft; assay: H460 ectopic xenograft tumor growth and body weight, 150 mg/kg i.p.; format: in vivo, nu/nu mice
Excerpt: as §5
The human H460 non-small cell lung cancer human tumor ectopic xenograft model was employed for this study. The H460 non-small cell lung cancer xenograft model was established by s.c. implantation of 1×10^6 cells in the flank of nu/nu mice. When the tumor size was 100 mm^3, a single dose of TH-302 (150 mg/kg, i.p.) or vehicle was administered.

[6] = tested on: H460 xenograft tumor hypoxia (pimonidazole); assay: Pimonidazole immunostaining of H460 tumors (hypoxic fraction); format: in vivo, nu/nu mice
Excerpt: as §5, §1
as §2, with “venipuncture. Plasma CA-IX changed from baseline 165±13 to 104±9.3 pg/ml 72 hours after TH-302 dosing, a 37% reduction (p<0.05; n=10 per group).” for “venipuncture.”, “time. […]” for “time.”

[7] = tested on: H460 xenograft tumor hypoxia ([18F]-HX4 uptake); assay: [18F]-HX4 PET/CT imaging of H460 xenograft tumors; format: in vivo, nu/nu mice
Excerpt: as §5, §1
as §2, with “venipuncture. Plasma CA-IX changed from baseline 165±13 to 104±9.3 pg/ml 72 hours after TH-302 dosing, a 37% reduction (p<0.05; n=10 per group).” for “venipuncture.”, “time. […]” for “time.”

[8] = 72 hrs after one dose at 150 mg/kg i.p.

SMILES	Plasma CA-IX ([1]; 72 hours after dosing 150 mg/kg i.p., baseline 165±13, n=10 per group) [pg/mL]	Plasma CA-IX reduction from baseline ([1]; 72 hours after dosing 150 mg/kg i.p., p<0.05) [%]	circulating plasma CA-IX level change [1]	TGD500 (increased time for treated tumor to reach 500 mm^3 vs vehicle) [2] [days]	TGI [2] [%]	TGD500 (increased time for treated tumor to reach 500 mm^3 vs vehicle) [3] [days]	TGI [3] [%]	DNA damage (γH2AX immunostaining) [4]	Proliferating cells (Ki67 immunostaining) [4]	necrosis (hematoxylin and eosin staining) [4]	tumor growth in relation to initial [18F]-HX4 uptake ([5]; 150 mg/kg i.p., Q4-5Dx3)	tumor volume change [5, 8]	TGD1000 (tumor growth delay to tumor size of 1000 mm^3) ([5]; single dose 150 mg/kg i.p.) [days]	maximum body weight loss ([5]; single dose 150 mg/kg i.p.) [%]	TGI (tumor growth inhibition) ([5]; single dose 150 mg/kg i.p. at tumor size 100 mm^3) [%]	hypoxic fraction (HF %) change, pimonidazole immunostaining ([6]; 72 hours after treatment)	hypoxic fraction (HF), PIMO immunostaining ([6]; tumors harvested 72 hours after 150 mg/kg i.p., vehicle 13±1.7%, n=6, p<0.05) [%]	[18F]-HX4 tumor to muscle ratio (T/M) ([7]; 72 hours after 150 mg/kg i.p., pre-treatment 3.3±0.3, p<0.005)	[18F]-HX4 uptake change (PET-CT) [7, 8]
Cn1c(COP(=O)(NCCBr)NCCBr)cnc1[N+](=O)[O-] [TH-302, (2-bromoethyl)({[(2-bromoethyl)amino][(2-nitro-3-methylimidazol-4-yl)methoxy]phosphoryl})amine]	104 ± 9.3	37	significantly reduced	10	10	18	89	significantly increased	decreased; also recorded: significantly reduced	significantly increased	tumors with higher initial [18F]-HX4 uptake grew slower	did not change significantly	10	2	58	significantly reduced	5.8±0.5	2.1±0.2	significantly reduced
COc1cccc2c1C(=O)c1c(O)c3c(c(O)c1C2=O)C[C@@](O)(C(=O)CO)C[C@@H]3O[C@H]1C[C@H](N)[C@H](O)[C@H](C)O1 [doxorubicin, reference compound]			did not change circulating CA-IX levels significantly; also recorded: No change																
